Legend:
JHH-5 cells (GPC3-mid) = test: On-cell binding by flow cytometry
Method: (§1) Briefly, cells were seeded at 50,000 cells/well in V-bottom 96-well plates and treated with antibody for 24 hours at 4° C. to prevent internalization. […] Following incubation and washing, fluorescence was detected by flow cytometry on a BD LSRFortessa™ Cell Analyzer (BD Biosciences, Franklin Lake, NJ) with 1,000 minimum events collected per well. AF647/APC-A GeoMean (fluorescence signal geometric mean, proportional to anti-Human AF647 binding) in live cell population was plotted against antibody concentration using GraphPad Prism Version 9 (GraphPad Software, San Diego, CA). The Bmax, Curve Hill Slope (h) and Kd values were derived from the “Specific binding with Hill slope” nonlinear regression curve fit in GraphPad Prism Version 9.
(§2) The on-cell binding capabilities of light chain (LC)-modified M3-H18L6 antibody constructs were assessed on JHH-7 (hepatocellular carcinoma; GPC3-high) and JHH-5 (hepatocellular carcinoma; GPC3-mid) by flow cytometry as described below. […] The assay was carried out as described in Example 13.
(§3) Briefly, plasma stress was carried out by incubating M3-H18L6 LC-modified antibodies in mouse plasma (BioIVT, Westbury, NY; Cat. No. MSE00PL38NC-0103070) for 14 days in a 37° C./5% CO2 incubator. […] Following incubation and washing, fluorescence was detected by flow cytometry on a BD LSRFortessa™ Cell Analyzer (BD Biosciences, Franklin Lake, NJ) with 1,000 minimum events collected per well. AF647/APC-A GeoMean (fluorescence signal geometric mean, proportional to anti-Human AF647 binding) in live cell population was plotted against antibody concentration using GraphPad Prism Version 9 (GraphPad Software, San Diego, CA). […] Following incubation, cells were dissociated, washed, and surface AF488 fluorescence was quenched using an anti-AF488 antibody (Life Technologies, Carlsbad, CA; Cat. No. A-11094) at 100 nM for 30 minutes at 4° C. Quenched AF488 fluorescence (internalized fluorescence) was detected by flow cytometry on a BD LSRFortessa™ Cell Analyzer (BD Biosciences, Franklin Lake, NJ) with 1,000 minimum events collected per well.

JHH-7 cells (GPC3-high) = test: On-cell binding by flow cytometry; conditions: flow cytometry
Method: as §1, §2, §3

[1] = tested on: cynomolgus monkey GPC3 on transfected CHO-S cells; test: Binding to transfected CHO-S cells by flow cytometry; conditions: 24 h at 4 °C
Sequence of cynomolgus monkey GPC3 on transfected CHO-S cells (as listed by the source): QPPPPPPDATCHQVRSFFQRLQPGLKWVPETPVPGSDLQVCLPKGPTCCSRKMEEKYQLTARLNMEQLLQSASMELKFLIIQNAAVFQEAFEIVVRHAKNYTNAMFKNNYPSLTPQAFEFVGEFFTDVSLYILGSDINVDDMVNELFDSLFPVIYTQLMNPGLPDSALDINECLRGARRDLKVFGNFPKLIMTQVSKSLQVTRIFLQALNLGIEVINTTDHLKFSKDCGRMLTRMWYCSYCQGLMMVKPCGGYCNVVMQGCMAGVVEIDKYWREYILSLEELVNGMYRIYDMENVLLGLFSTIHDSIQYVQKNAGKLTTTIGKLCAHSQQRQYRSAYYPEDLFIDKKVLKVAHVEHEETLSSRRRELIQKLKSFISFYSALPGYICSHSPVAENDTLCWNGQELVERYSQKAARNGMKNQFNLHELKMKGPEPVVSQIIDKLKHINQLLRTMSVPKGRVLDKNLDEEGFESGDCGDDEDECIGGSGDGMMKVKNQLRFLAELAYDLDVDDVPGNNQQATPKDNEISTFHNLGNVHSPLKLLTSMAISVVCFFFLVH
Method: Briefly, CHO—S cells were transiently transfected for −24 hours with a pTT5-based expression plasmid encoding human GPC3 or cynomolgus monkey GPC3, 0.5 μg DNA per 1 million cells, using the Neon™ Transfection System (Thermo Fisher Scientific Corp., Waltham, MA), to transiently express human or cynomolgus monkey GPC3. Following transfection, cells were seeded at 50,000 cells/well in V-bottom 96-well plates and treated with antibody for 24 hours at 4° C. to prevent internalization. […] Following incubation and washing, fluorescence was detected by flow cytometry on a BD LSRFortessa™ Cell Analyzer (BD Biosciences, Franklin Lake, NJ) with 1,000 minimum events collected per well. AF647/APC-A GeoMean (fluorescence signal geometric mean, proportional to anti-Human AF647 binding) in live cell population was plotted against antibody concentration using GraphPad Prism Version 9 (GraphPad Software, San Diego, CA). The Bmax and Kd values were derived from the “Specific binding with Hill slope” nonlinear regression curve fit in GraphPad Prism Version 9.
Briefly, CHO—S cells were transiently transfected for −24 hours with a pTT5-based expression plasmid encoding human GPC3 or cynomolgus monkey GPC3, 0.5 μg DNA per 1 million cells, using the Neon™ Transfection System (Thermo Fisher Scientific Corp., Waltham, MA), to transiently express human or cynomolgus monkey GPC3. […]

palivizumab
did not exhibit any binding: binding to JHH-5 cells, in words (JHH-5 cells (GPC3-mid)) | binding to JHH-7 cells, in words (JHH-7 cells (GPC3-high)) | binding to CHO-S cells expressing cynomolgus monkey GPC3, in words [1]

— patent US20250295799A1, “ANTIBODY-DRUG CONJUGATES TARGETING GLYPICAN-3 AND METHODS OF USE” (Zymeworks BC Inc., priority 2022, published 2025)
